From PMC5734728, “The JAK2/STAT3 inhibitor pacritinib effectively inhibits patient-derived GBM brain tumor initiating cells in vitro and when used in combination with temozolomide increases survival in an orthotopic xenograft model” (PLoS ONE, 2017)
Where two headings read alike, the source gives them in different places.

Columns and labels:
[1] = mouse liver microsomes; usual value of control compound; cited from earlier work
in vitro = in vitro ADME, mouse; conditions: male, CD-1, mouse
Protocol: (§1) Working stocks were initially diluted to a concentration of 40 μM in 0.1 M potassium phosphate buffer before addition to the reaction vials. Pooled mouse (CD-1, male) or human (50 donors) liver microsomes were utilized at a final concentration of 0.5 mg/mL. Duplicate wells were used for each time point (0 and 30 minutes). Reactions were carried out at 37°C in a shaker, and the final concentration of DMSO was kept constant at 0.01%. The final volume for each reaction was 100 μL, which included the addition of an NADPH-Regeneration solution (NRS) mix. The NRS mix was comprised of glucose 6-phosphate dehydrogenase (0.4 U/mL), NADP+ (1.3 mM), MgCl2 (3.3 mM), and glucose 6-phosphate (3.3 mM) in assay mixtures. Upon completion of the 30-minute time point, reactions were terminated by the addition of 1.5-volumes (150 μL) of ice-cold acetonitrile with 0.5% formic acid and internal standard. Samples were then centrifuged at 4,000 rpm for 10 minutes to remove debris and precipitated protein. Approximately 150 μL of supernatant was subsequently transferred to a new 96-well microplate for LC-MS analysis. Narrow-window mass extraction LC-MS analysis was performed for all samples using a Waters Xevo quadrupole time-of-flight (QToF) mass spectrometer and an ACQUITY UPLC system, to determine relative peak areas of parent compound.

[2] = human liver microsomes; usual value of control compound; cited from earlier work
[3] = human liver microsomal stability assay; format: in vitro ADME; conditions: human liver microsomes, 30-minute incubation, 1 μM
Protocol: as §1

[4] = system: patient-derived GBM BTIC cultures; test: alamarBlue viability assay, panel of BTIC cultures; conditions: 10 μg/mL TMZ
Protocol: Accumax (eBioscience) was used to enzymatically dissociate BTIC spheres to single cells. Cells were seeded at 1000 cells per well in 96-well plates and treated with vehicle (DMSO) or drug, 24 hours after plating. BTIC viability was assessed after 7–14 days, once spheres were formed in control wells, by performing the alamarBlue™ (Invitrogen) assay per the manufacturer’s instructions. In brief, the alamar dye was added to each well and plates were read 6 hours later. Fluorescence intensity (excitation 540 nm; emission 590 nm) was measured on a SpectraMax M Series Multi-Mode Microplate reader. […] All experiments were performed in triplicate with a minimum of 3 wells per condition.
BTICs were treated with suboptimal doses of 1 μM pacritinib (CTI Biopharma), 10 μg/mL TMZ (Sigma), or a combination of pacritinib and TMZ. […] Percent inhibition was determined by normalizing each well to the control well (0.1% DMSO).

[5] = system: BT147 orthotopic xenograft; test: Kaplan-Meier survival, orthotopic BT147 xenograft; format: in vivo; conditions: BT147 xenografted mice; pacritinib 100 mg/kg, TMZ 30 mg/kg, oral, thrice weekly for five weeks; control 52 days
Protocol: For Kaplan-Meier survival studies, BTIC spheres from BT53 or BT147 were dissociated to a single-cell suspension. Mice were anaesthetized using 10 mg/kg ketamine/xylazine. Buprenorphine (0.05 mg/kg) was administered once pre-operatively and once post-operatively to minimize animal suffering. 5 x 10^4 cells were stereotactically implanted into the right striata of 8- to 10-week-old female severe combined immunodeficient (SCID) mice, as previously described and approved by the University of Calgary Health Sciences Animal Care Committee, accredited by CCAC. Mice were randomized to vehicle or treatment cohorts, with a minimum of 8 mice per group, one week after cell implantation. For BT147, vehicle (Ora-Plus; Galenova), pacritinib (100 mg/kg), TMZ (30 mg/kg), or a combination of pacritinib (100 mg/kg) and TMZ (30 mg/kg), were administered via oral gavage. Animals completed a five-week regimen of three weekly treatments for a total of 15 treatments. For BT53, 100 mg/kg of pacritinib was administered twice per day alone or in combination with 50 mg/kg TMZ once per day, for one week via oral gavage. Following this, mice received 100 mg/kg pacritinib twice per day in combination with 10 mg/kg TMZ once per day for two weeks. Mice were euthanized with a lethal dose of sodium pentobarbital at a pre-defined humane endpoint. Specific criteria for the endpoint included: 20% weight loss, lack of grooming, inactivity, hind limb paralysis, and/or inability to eat or drink. The body weights were closely monitored throughout the course of the experiment. […] The presence of tumor was confirmed in the mice via necropsy and cranial dissection.

[6] = system: BT53 orthotopic xenograft; test: Kaplan-Meier survival, orthotopic BT53 xenograft; format: in vivo, mice; conditions: BT53; combination p < 0.0023, TMZ alone p < 0.0229, log-rank
Protocol: For Kaplan-Meier survival studies, BTIC spheres from BT53 or BT147 were dissociated to a single-cell suspension. Mice were anaesthetized using 10 mg/kg ketamine/xylazine. Buprenorphine (0.05 mg/kg) was administered once pre-operatively and once post-operatively to minimize animal suffering. 5 x 10^4 cells were stereotactically implanted into the right striata of 8- to 10-week-old female severe combined immunodeficient (SCID) mice, as previously described and approved by the University of Calgary Health Sciences Animal Care Committee, accredited by CCAC. Mice were randomized to vehicle or treatment cohorts, with a minimum of 8 mice per group, one week after cell implantation. For BT147, vehicle (Ora-Plus; Galenova), pacritinib (100 mg/kg), TMZ (30 mg/kg), or a combination of pacritinib (100 mg/kg) and TMZ (30 mg/kg), were administered via oral gavage. Animals completed a five-week regimen of three weekly treatments for a total of 15 treatments. For BT53, 100 mg/kg of pacritinib was administered twice per day alone or in combination with 50 mg/kg TMZ once per day, for one week via oral gavage. Following this, mice received 100 mg/kg pacritinib twice per day in combination with 10 mg/kg TMZ once per day for two weeks. […] The body weights were closely monitored throughout the course of the experiment. […]

p-STAT3 Y705 = test: western blotting of activated STAT3 in BTICs; format: cell-based, human; conditions: BT53, 48 hours; 1 μM pacritinib, 10 μg/mL TMZ or both
Protocol: BTIC spheres were enzymatically dissociated as described above and plated at 10^6 cells/2 mL of media. Cells were treated with vehicle (DMSO), pacritinib, TMZ, or a combination of pacritinib and TMZ and pelleted at select time points (3, 24, and 48 hours). For protein extraction, BTICs were lysed in modified radio-immunoprecipitation assay buffer supplemented with Complete Mini protease (Roche) and Halt phosphatase (Thermo Scientific) inhibitor cocktails. Protein concentrations were quantified using the BioRad protein assay; 20 μg of protein were loaded on 6% or 10% sodium dodecyl sulfate polyacrylamide gel electrophoresis (SDS PAGE) gels and transblotted to nitrocellulose membranes. Blots were stained with primary antibodies followed by horseradish peroxidase-conjugated secondary antibodies. Primary antibodies included p-STAT3 Y705 (1:1000; Cell Signaling Technology), STAT3 (1:1000; Cell Signaling Technology), p-Akt S473 (1:1000; Cell Signaling Technology), Akt (1:1000; Cell Signaling Technology), p-p44/42 MAPK (T202/Y204) (1:1000; Cell Signaling Technology), p44/42 MAPK (1:4000; Cell Signaling Technology), poly (ADP-ribose) polymerase (1:1000; Cell Signaling Technology), β-tubulin (1:1000; Cell Signaling Technology), and Actin (1:1000; Santa Cruz Biotechnology). Secondary antibodies included donkey anti-mouse (1:5000; Cell Signaling Technology), donkey anti-goat (1:5000; Millipore), and goat anti-rabbit (1:5000; Cell Signaling Technology). The blots were washed with tris-buffered saline and tween 20 (T-TBS) (50mM Tris, 150mM NaCl, 0.05% Tween 20, pH 7.6) and blocked with tris-buffered saline (TBS) before imaging. Bands were visualized with the SuperSignal West Pico chemiluminescent solution (Thermo Scientific) and an Amersham™ Imager 600 (General Electric).

For `Cc1cc(=O)n(-c2ccccc2)n1C` [Antipyrine], which “Usual value (% remaining)” value [1] is on record?
Its value is “Usual value: >90%”.

What about the remaining at 0.5 h, 1 μM (in vitro; microsomes, % Remaining) of the same molecule?
The remaining at 0.5 h, 1 μM was 96.5%.

For `COc1ccc2c(c1)[C@]13CCCC[C@@H]1[C@H](C2)N(C)CC3` [DXM], which “Usual value (% remaining)” value [2] is on record?
The value was “Usual value: 72 ± 10%”.

What about the “% Remaining” value [3] of the same molecule?
Its value is 75.0%.

Which “Usual value (% remaining)” value [1] does the source give for `CC(C)NCC(O)COc1cccc2ccccc12` (centres unmarked) [Propranolol] here?
The value was “Usual value: <20%”.

And the remaining at 0.5 h, 1 μM (in vitro; liver microsomes, mouse liver microsomes, 30-minute incubation, 1 μM, read-out: % Remaining)?
Its remaining at 0.5 h, 1 μM is 9.6%.

What does the source list for `Cn1nnc2c(C(N)=O)ncn2c1=O` [TMZ, temozolomide]?
sensitivity of MGMT unmethylated BTIC cultures ([4]; representative BT12): largely resistant to TMZ; sensitivity of MGMT methylated BTIC cultures ([4]; representative BT67 and BT69): highly sensitive to TMZ; median survival [5]: 58 days; survival advantage over the control, combination study [6]: significant survival advantage over the control arm; p-STAT3 Y705 (p-STAT3 Y705): dramatic increase in p-STAT3 Y705
